Source: PubChem BioAssay AID192 (DTP/NCI, 2004)
Several values for one entry are separate records, joined by “and”; a condition that tells them apart may be missing. Equal values may be shown once. Toxic doses and inconclusive results are not listed.

Test system: BDF1 mice, B16 melanoma ip, median survival T/C
Test: NCI In Vivo Anticancer Drug Screen. Data for tumor model B16 Melanoma (intraperitoneal) in B6D2F1 (BDF1) mice
Conditions: endpoint: median survival time, higher = longer survival
Outline: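 Survival or tumor size is measured after treatment of tumor-bearing mice and normalised to the vehicle-treated control group.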

[1] = dose: 100.0 mg/kg/injection, schedule: Q01DX009 (ip), vehicle: saline with Tween-80
[2] = dose: 200.0 mg/kg/injection, schedule: Q01DX009 (ip), vehicle: saline with Tween-80
[3] = dose: 100.0 mg/kg/injection, schedule: Q01DX009 (ip), vehicle: Klucel (hydroxypropylcellulose) (HPC)
[4] = dose: 100.0 mg/kg/injection, schedule: Q01DX009 (ip), vehicle: saline

**Q.** What does the source list for CCCCCCCCCCCCCCCCCS(=O)S(=O)O (stereo not given)?
**A.** T/C [1]: 113 % of control; T/C [2]: 97 % of control; T/C (dose: 400.0 mg/kg/injection, schedule: Q01DX009 (ip), vehicle: saline with Tween-80): 95 % of control

**Q.** CN(C)c1ccc2cc(S(=O)(=O)O)cc(O)c2c1 was tested. Which T/C [1] did it give?
**A.** 97 % of control

**Q.** And the T/C [2]?
**A.** 94 % of control

**Q.** Which results are given for C=CC(=O)NCNC(=O)CCBr?
**A.** T/C (dose: 25.0 mg/kg/injection, schedule: Q01DX009 (ip), vehicle: Klucel (hydroxypropylcellulose) (HPC)): 115 % of control; T/C (dose: 50.0 mg/kg/injection, schedule: Q01DX009 (ip), vehicle: Klucel (hydroxypropylcellulose) (HPC)): 121 % of control; T/C [3]: 123 % of control

**Q.** Which results are given for Cc1noc(C)c1CON?
**A.** T/C (dose: 12.5 mg/kg/injection, schedule: Q04DX003 (ip), vehicle: saline): 118 % of control; T/C (dose: 25.0 mg/kg/injection, schedule: Q04DX003 (ip), vehicle: saline): 118 % of control; T/C (dose: 50.0 mg/kg/injection, schedule: Q04DX003 (ip), vehicle: saline): 123 % of control

**Q.** What does the source list for Oc1c(CN2CCCC2)cc(Nc2cc(/C=C/c3ccc(Cl)cc3)nc(/C=C\c3ccc(Cl)cc3)n2)cc1CN1CCCC1?
**A.** T/C (dose: 3.0 mg/kg/injection, schedule: Q04DX003 (ip), vehicle: Klucel (hydroxypropylcellulose) (HPC)): 105 % of control; T/C (dose: 6.0 mg/kg/injection, schedule: Q04DX003 (ip), vehicle: Klucel (hydroxypropylcellulose) (HPC)): 97 % of control; T/C (dose: 12.0 mg/kg/injection, schedule: Q04DX003 (ip), vehicle: Klucel (hydroxypropylcellulose) (HPC)): 89 % of control

**Q.** For C[CH2][Sn]1([CH2]C)[O]OC(c2ccccc2)[O]1 (stereo not given), which T/C (dose: 0.78 mg/kg/injection, schedule: Q01DX009 (ip), vehicle: saline with Tween-80) is on record?
**A.** 106 % of control

**Q.** What about the T/C (dose: 1.56 mg/kg/injection, schedule: Q01DX009 (ip), vehicle: saline with Tween-80) of the same compound?
**A.** 105 % of control and 111 % of control

**Q.** What about the T/C (dose: 3.12 mg/kg/injection, schedule: Q01DX009 (ip), vehicle: saline with Tween-80) of the same compound?
**A.** 109 % of control and 112 % of control

**Q.** And the T/C (dose: 6.25 mg/kg/injection, schedule: Q01DX009 (ip), vehicle: saline with Tween-80)?
**A.** 113 % of control and 116 % of control

**Q.** And the T/C (dose: 12.5 mg/kg/injection, schedule: Q01DX009 (ip), vehicle: saline with Tween-80)?
**A.** 101 % of control and 117 % of control

**Q.** How did the T/C (dose: 0.31 mg/kg/injection, schedule: Q01DX009 (ip), vehicle: saline) turn out when C=CCN(CC=C)P(=O)(N1CC1C)N1CC1C (stereo not given) was run?
**A.** 109 % of control

**Q.** What about the T/C (dose: 0.63 mg/kg/injection, schedule: Q01DX009 (ip), vehicle: saline) of the same compound?
**A.** 112 % of control

**Q.** What about the T/C (dose: 1.25 mg/kg/injection, schedule: Q01DX009 (ip), vehicle: saline) of the same compound?
**A.** 122 % of control

**Q.** And the T/C (dose: 2.5 mg/kg/injection, schedule: Q01DX009 (ip), vehicle: saline)?
**A.** 99 % of control

**Q.** With Nc1ccc2cc(S(=O)(=O)O)cc(O)c2c1N=Nc1ccc(F)cc1 as the compound, how does the T/C [4] read?
**A.** 87 % of control

**Q.** How did the T/C (dose: 50.0 mg/kg/injection, schedule: Q01DX009 (ip), vehicle: saline with Tween-80) turn out when CC(=O)OC1CCC(C(C)(C)C)CC1 (stereo not given) was run?
**A.** 113 % of control

**Q.** And the T/C [1]?
**A.** 91 % of control

**Q.** O=C1OCC(O)C(O)C(O)C(O)C1O (stereo not given) was tested. Which T/C [4] did it give?
**A.** 113 % of control

**Q.** And the T/C (dose: 200.0 mg/kg/injection, schedule: Q01DX009 (ip), vehicle: saline)?
**A.** 106 % of control

**Q.** What about the T/C (dose: 400.0 mg/kg/injection, schedule: Q01DX009 (ip), vehicle: saline) of the same compound?
**A.** 120 % of control

**Q.** With CNc1ccccc1C(N)=O as the compound, how does the T/C [3] read?
**A.** 94 % of control

**Q.** What about the T/C (dose: 200.0 mg/kg/injection, schedule: Q01DX009 (ip), vehicle: Klucel (hydroxypropylcellulose) (HPC)) of the same compound?
**A.** 100 % of control

**Q.** For CCOC(=O)c1c(N)[nH]c(SSc2[nH]c(N)c(C(=O)OCC)c2C(=O)OCC)c1C(=O)OCC, which T/C (dose: 75.0 mg/kg/injection, schedule: Q01DX009 (ip), vehicle: saline) is on record?
**A.** 89 % of control

**Q.** And the T/C (dose: 300.0 mg/kg/injection, schedule: Q01DX009 (ip), vehicle: saline)?
**A.** 97 % of control

**Q.** Which results are given for C=Cc1cc(OC)c2c(c1)c(=O)oc1c2cc(OC)c2c(O)ccc(C3OC(C(C)O)C(O)C3O)c21 (stereo not given)?
**A.** T/C [3]: 159 % of control; T/C (dose: 400.0 mg/kg/injection, schedule: Q01DX009 (ip), vehicle: Klucel (hydroxypropylcellulose) (HPC)): 113 % of control

**Q.** How did the T/C (dose: 3.12 mg/kg/injection, schedule: Q01DX001 (ip), vehicle: water) turn out when COc1cccc2c1C(=O)c1c(O)c3c(c(O)c1C2=O)C[C@@](O)(C(C)O)C[C@@H]3OC1CC(N2CCC(OC)CC2)C(O)C(C)O1 (stereo not given in full) was run?
**A.** 112 % of control

**Q.** What about the T/C (dose: 6.25 mg/kg/injection, schedule: Q01DX001 (ip), vehicle: water) of the same compound?
**A.** 117 % of control

**Q.** And the T/C (dose: 12.5 mg/kg/injection, schedule: Q01DX001 (ip), vehicle: water)?
**A.** 173 % of control

**Q.** What about the T/C (dose: 25.0 mg/kg/injection, schedule: Q01DX001 (ip), vehicle: water) of the same compound?
**A.** 165 % of control and 166 % of control

**Q.** What about the T/C (dose: 50.0 mg/kg/injection, schedule: Q01DX001 (ip), vehicle: water) of the same compound?
**A.** 177 % of control
